pIC50: −log10 of the molar value. Values belong to the compound of their own block, whether it stands above or below them.
Molecular target: T1, α4β1 integrin (Homo sapiens, UniProt P05556+P13612)
T1 construct: endogenous in cells; host or cells: Ramos cells
Assay: Adhesion of calcein-labeled Ramos cells to CS1 (fibronectin) peptide conjugated ovalbumin
Assay type: cell-based
Settings: Ramos cell adhesion to CS1 conjugated ovalbumin
Method in brief: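 Plates bearing CS1 fibronectin peptide coupled to ovalbumin (0.5 μg/ml coat, 3% BSA block) received calcein-labelled Ramos cells plus compound (100 μM stated) for 30 min at 37 °C. Buffer was TBS pH 7.5 with 1 mM Mg2+, Ca2+, Mn2+; bound cells quantified by fluorescence after lysis; […].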

[1] = Table 7, dose required to give 50% inhibition
[2] = Table 5, dose required to give 50% inhibition

T1 sequence (P13612 34-1032): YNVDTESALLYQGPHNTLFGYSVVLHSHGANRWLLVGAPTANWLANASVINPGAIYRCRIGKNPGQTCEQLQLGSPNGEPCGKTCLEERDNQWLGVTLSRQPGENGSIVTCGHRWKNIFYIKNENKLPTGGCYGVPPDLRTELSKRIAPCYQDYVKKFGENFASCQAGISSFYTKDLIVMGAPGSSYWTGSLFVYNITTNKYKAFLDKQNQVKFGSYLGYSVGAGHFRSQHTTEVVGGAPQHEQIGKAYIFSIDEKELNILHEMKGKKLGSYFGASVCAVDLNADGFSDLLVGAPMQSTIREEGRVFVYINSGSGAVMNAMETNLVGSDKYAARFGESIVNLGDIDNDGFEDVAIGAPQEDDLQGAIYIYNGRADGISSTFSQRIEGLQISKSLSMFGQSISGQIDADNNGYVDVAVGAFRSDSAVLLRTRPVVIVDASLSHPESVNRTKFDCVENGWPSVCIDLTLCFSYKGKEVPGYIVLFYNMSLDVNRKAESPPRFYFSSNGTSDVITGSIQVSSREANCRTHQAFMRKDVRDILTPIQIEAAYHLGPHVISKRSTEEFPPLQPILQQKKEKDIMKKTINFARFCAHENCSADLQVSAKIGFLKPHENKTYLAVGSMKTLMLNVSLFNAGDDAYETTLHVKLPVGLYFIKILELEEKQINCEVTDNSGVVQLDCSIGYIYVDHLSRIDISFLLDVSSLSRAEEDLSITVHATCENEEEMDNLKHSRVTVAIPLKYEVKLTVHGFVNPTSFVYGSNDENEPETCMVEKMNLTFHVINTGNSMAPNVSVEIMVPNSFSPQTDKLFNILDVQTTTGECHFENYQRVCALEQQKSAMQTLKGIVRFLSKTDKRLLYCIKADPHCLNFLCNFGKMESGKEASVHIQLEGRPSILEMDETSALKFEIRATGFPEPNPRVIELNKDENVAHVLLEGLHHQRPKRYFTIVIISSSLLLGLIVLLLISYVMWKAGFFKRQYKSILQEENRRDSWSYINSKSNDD
T1 sequence (P05556 21-798): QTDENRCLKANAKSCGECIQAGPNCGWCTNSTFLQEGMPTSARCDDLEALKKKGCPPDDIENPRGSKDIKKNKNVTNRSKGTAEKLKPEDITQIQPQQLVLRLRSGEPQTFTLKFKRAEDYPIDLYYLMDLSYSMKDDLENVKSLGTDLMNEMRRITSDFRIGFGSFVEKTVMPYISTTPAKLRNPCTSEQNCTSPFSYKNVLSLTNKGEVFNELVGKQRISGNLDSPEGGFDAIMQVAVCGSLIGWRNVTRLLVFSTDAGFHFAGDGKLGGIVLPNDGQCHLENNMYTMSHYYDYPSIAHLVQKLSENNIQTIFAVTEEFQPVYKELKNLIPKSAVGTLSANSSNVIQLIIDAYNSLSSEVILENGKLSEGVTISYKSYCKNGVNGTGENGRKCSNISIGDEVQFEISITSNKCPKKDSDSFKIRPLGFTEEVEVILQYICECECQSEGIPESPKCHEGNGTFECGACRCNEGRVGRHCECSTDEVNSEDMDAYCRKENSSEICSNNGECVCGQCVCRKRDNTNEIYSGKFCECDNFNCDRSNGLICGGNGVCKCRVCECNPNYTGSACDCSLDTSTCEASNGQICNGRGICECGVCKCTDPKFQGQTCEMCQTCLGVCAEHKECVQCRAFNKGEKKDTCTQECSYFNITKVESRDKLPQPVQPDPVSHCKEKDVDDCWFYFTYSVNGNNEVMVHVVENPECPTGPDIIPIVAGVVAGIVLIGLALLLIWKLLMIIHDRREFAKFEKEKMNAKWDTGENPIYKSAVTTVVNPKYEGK

pIC50 [2]: 6.70
SMILES: Cc1ccc([C@H](CC(=O)O)NC(=O)Nc2cccn(Cc3ccccc3O)c2=O)cc1

pIC50 (Table 4, 30 minutes at 37° C.): 5.70
SMILES: Cc1ccc([C@H](CC(=O)O)NC(=O)Nc2cccn(Cc3c(N)cccc3Cl)c2=O)cc1

pIC50 [2]: 8.52
SMILES: Cc1ccc([C@H](CC(=O)O)NC(=O)Nc2c(O)c3c(n(Cc4ccccc4Cl)c2=O)CCC3)cc1 [(3S)-3-[({[1-(2-chlorobenzyl)-4-hydroxy-2-oxo-2,5,6,7-tetrahydro-1H-cyclopenta[b]pyridin-3-yl]amino}carbonyl)amino]-3-(4-methylphenyl)propanoic acid]

pIC50 (Table 4, 30 minutes at 37° C.): 6.70
SMILES: Cc1cccc([C@H](CC(=O)O)NC(=O)Nc2cccn(Cc3ccccc3Cl)c2=O)c1

pIC50 (Table 6, 30 minutes at 37° C.): 8.15
SMILES: CCOc1cccc(Cl)c1Cn1ccc(O)c(NC(=O)N[C@@H](CC(=O)O)c2ccc(C)cc2)c1=O

pIC50 (Table 4, 30 minutes at 37° C.): 7.05
SMILES: Cc1ccc([C@H](CC(=O)O)NC(=O)Nc2cccn(Cc3ccccc3Cl)c2=O)cc1C

pIC50 [2]: 8.52
SMILES: Cc1ccc([C@H](CC(=O)O)NC(=O)Nc2c(O)ccn(Cc3cc(S(C)(=O)=O)ccc3Cl)c2=O)cc1 [(3S)-3-{[({1-[2-chloro-5-(methylsulfonyl)benzyl]-4-hydroxy-2-oxo-1,2-dihydropyridin-3-yl}amino)carbonyl]amino}-3-(4-methylphenyl)propanoic acid]

pIC50 [2]: 7.70
SMILES: Cc1ccc([C@H](CC(=O)O)NC(=O)Nc2c(O)ccn(Cc3ccc(C(F)(F)F)cc3)c2=O)cc1

pIC50 (Table 3, 30 minutes at 37° C.): 8.00
SMILES: Cc1ccc([C@H](CC(=O)O)NC(=O)Nc2c(O)ccn(Cc3c(F)cccc3Cl)c2=O)cc1 [(3S)-3-{[({1-[(2-chloro-6-fluorophenyl)methyl]-4-hydroxy-2-oxo-1,2-dihydro-3-pyridinyl}amino)carbonyl]amino}-3-(4-methylphenyl)propanoic acid]

pIC50 (Table 6, 30 minutes at 37° C.): 6.80
SMILES: COc1ccc(C(CC(=O)O)NC(=O)Nc2c(O)ccn(Cc3ccccc3Cl)c2=O)c2ccccc12 (stereo not shown)

pIC50 (Table 3, 30 minutes at 37° C.): 8.30
SMILES: Cc1ccc([C@H](CC(=O)O)NC(=O)Nc2c(N3CCC3)ccn(Cc3ccccc3Cl)c2=O)cc1 [(3S)-3-{[({4-(1-azetanyl)-1-[(2-chlorophenyl)methyl]-2-oxo-1,2-dihydro-3-pyridinyl}amino)carbonyl]amino}-3-(4-methylphenyl)propanoic acid]

pIC50 (Table 4, 30 minutes at 37° C.): 7.00
SMILES: Cc1ccc([C@H](CC(=O)O)NC(=O)Nc2cccn(Cc3ccccc3Cl)c2=O)cc1

pIC50 [2]: 7.10
SMILES: COc1ccccc1Cn1ccc(O)c(NC(=O)N[C@@H](CC(=O)O)c2ccc(C)cc2)c1=O

pIC50 [2]: 7.22
SMILES: Cc1ccc([C@H](CC(=O)O)NC(=O)Nc2c(O)ccn(Cc3c(C)cc(C)cc3C)c2=O)cc1

pIC50 [2]: 7.82
SMILES: CCc1cccc([C@H](CC(=O)O)NC(=O)Nc2c(O)ccn(Cc3ccccc3Cl)c2=O)c1

pIC50 (Table 4, 30 minutes at 37° C.): 5.52
SMILES: O=C(O)C[C@H](NC(=O)Nc1cccn(Cc2cccs2)c1=O)c1cccc(F)c1

pIC50 [2]: 7.70
SMILES: Cc1ccc([C@H](CC(=O)O)NC(=O)Nc2c(O)ccn(Cc3ccccc3C(F)(F)F)c2=O)cc1

pIC50 [2]: 6.40
SMILES: Cc1ccc([C@H](CC(=O)O)N(C)C(=O)Nc2c(O)ccn(Cc3ccccc3Cl)c2=O)cc1

pIC50 [2]: 8.00
SMILES: Cc1ccc([C@H](CC(=O)O)NC(=O)Nc2c(NC(=O)NC(C)(C)C)ccn(Cc3ccccc3Cl)c2=O)cc1 [(3S)-3-[({[4-{[(tert-butylamino)carbonyl]amino}-1-(2-chlorobenzyl)-2-oxo-1,2-dihydropyridin-3-yl]amino}carbonyl)amino]-3-(4-methylphenyl)propanoic acid]

pIC50 (Table 6, 30 minutes at 37° C.): 7.22
SMILES: Cc1ccc([C@H](CC(=O)O)NC(=O)Nc2c(O)c(C(C)C)cn(Cc3ccccc3Cl)c2=O)cc1

pIC50 (Table 6, 30 minutes at 37° C.): 7.82
SMILES: Cc1ccc([C@H](CC(=O)O)NC(=O)Nc2c(O)c(C)cn(Cc3cc(Cl)ccc3F)c2=O)cc1

pIC50 [2]: 7.60
SMILES: Cc1ccc([C@H](CC(=O)O)NC(=O)Nc2c(O)ccn(Cc3ccc(OC(F)(F)F)cc3)c2=O)cc1

pIC50 (Table 3, 30 minutes at 37° C.): 8.70
SMILES: COCCOCCOc1ccn(Cc2ccccc2Cl)c(=O)c1NC(=O)N[C@@H](CC(=O)O)c1ccc(C)cc1

pIC50 (Table 4, 30 minutes at 37° C.): 5.52
SMILES: Cc1ccccc1[C@H](CC(=O)O)NC(=O)Nc1cccn(Cc2ccccc2Cl)c1=O

pIC50 (Table 3, 30 minutes at 37° C.): 8.30
SMILES: COc1ccc([C@H](CC(=O)O)NC(=O)Nc2c(O)ccn(Cc3ccccc3Cl)c2=O)cc1 [(3S)-3-{[({1-[(2-chlorophenyl)methyl]-4-hydroxy-2-oxo-1,2-dihydro-3-pyridinyl}amino)carbonyl]amino}-3-[4-(methyloxy)phenyl]propanoic acid]

pIC50 (Table 3, 30 minutes at 37° C.): 7.40
SMILES: O=C(O)C[C@H](NC(=O)Nc1c(O)ccn(Cc2ccccc2Cl)c1=O)c1cccc(F)c1

pIC50 (Table 3, 30 minutes at 37° C.): 8.40
SMILES: CCCc1ccn(Cc2ccccc2Cl)c(=O)c1NC(=O)N[C@@H](CC(=O)O)c1ccc(C)cc1

pIC50 (Table 4, 30 minutes at 37° C.): 7.00
SMILES: Cc1ccc([C@H](CC(=O)O)NC(=O)Nc2cccn(Cc3ccccc3C#N)c2=O)cc1

pIC50 [2]: 7.12
SMILES: Cc1ccc([C@H](CC(=O)O)NC(=O)Nc2c(O)ccn(Cc3ccccc3OC(F)F)c2=O)cc1

pIC50 (Table 6, 30 minutes at 37° C.): 6.82
SMILES: Cc1ccc(Cn2cc(C)c(O)c(NC(=O)N[C@@H](CC(=O)O)c3ccc(C)cc3)c2=O)cc1

pIC50 [1]: 7.57
SMILES: CCOc1cccc(-c2ccc([C@H](CC(=O)O)NC(=O)Nc3c(O)ccn(Cc4ccccc4Cl)c3=O)cc2)c1

pIC50 [1]: 7.82
SMILES: CSc1ccc(C(CC(=O)O)NC(=O)Nc2c(O)c(C)cn(Cc3ccccc3Cl)c2=O)cc1 (stereo not shown)

Second part, the compound before the results:

SMILES: Cc1ccc([C@H](CC(=O)O)NC(=O)Nc2c(O)c(C)cn(Cc3c(Cl)cccc3N3CCCCC3)c2=O)cc1 [(3S)-3-({[(1-{[2-chloro-6-tetrahydro-1(2H)-pyridinylphenyl]methyl}-4-hydroxy-5-methyl-2-oxo-1,2-dihydro-3-pyridinyl)amino]carbonyl}amino)-3-(4-methylphenyl)propanoic acid]
pIC50 [1]: 7.05

SMILES: CCCOc1cccc([C@H](CC(=O)O)NC(=O)Nc2c(O)c3c(n(Cc4c(C)cccc4Cl)c2=O)CCC3)c1
pIC50 [1]: 7.92

SMILES: Cn1ccc2ccc([C@H](CC(=O)O)NC(=O)Nc3c(O)c4c(n(Cc5ccccc5Cl)c3=O)CCC4)cc21
pIC50 [1]: 8.52

SMILES: CCCc1cn(Cc2ccc(Cl)cc2)c(=O)c(NC(=O)N[C@@H](CC(=O)O)c2ccc(C)cc2)c1O
pIC50 [2]: 7.52

SMILES: Cc1ccccc1-c1cccc([C@H](CC(=O)O)NC(=O)Nc2c(O)c(C)cn(Cc3ccccc3Cl)c2=O)c1
pIC50 [1]: 7.70

SMILES: Cc1ccc([C@H](CC(=O)O)NC(=O)Nc2c(O)c3c(n(Cc4ccccc4Cl)c2=O)CCC3)cc1C
pIC50 (Table 6, 30 minutes at 37° C.): 7.74

SMILES: CCCOc1cccc([C@H](CC(=O)O)NC(=O)Nc2c(O)c3c(n(Cc4ccccc4Cl)c2=O)CCC3)c1
pIC50 [1]: 7.82

SMILES: CCOc1cccc([C@H](CC(=O)O)NC(=O)Nc2c(O)c(C)c(C)n(Cc3c(Cl)cccc3OCC)c2=O)c1
pIC50 [1]: 8.40

SMILES: COc1ccc(Cl)c(Cn2cc(C)c(O)c(NC(=O)N[C@@H](CC(=O)O)c3ccc(C)cc3)c2=O)c1 [(3S)-3-[({[1-(2-chloro-5-methoxybenzyl)-4-hydroxy-5-methyl-2-oxo-1,2-dihydropyridin-3-yl]amino}carbonyl)amino]-3-(4-methylphenyl)propanoic acid]
pIC50 [1]: 8.52

SMILES: Cc1ccc([C@H](CC(=O)O)NC(=O)Nc2c(O)c(C)cn(Cc3c(F)cccc3F)c2=O)cc1
pIC50 (Table 6, 30 minutes at 37° C.): 7.60

SMILES: COc1cccc(Cl)c1Cn1cc(C)c(O)c(NC(=O)N[C@@H](CC(=O)O)c2ccc(C)cc2)c1=O
pIC50 (Table 6, 30 minutes at 37° C.): 8.30

SMILES: CCn1c2ccccc2c2cc([C@H](CC(=O)O)NC(=O)Nc3c(O)c4c(n(Cc5ccccc5Cl)c3=O)CCC4)ccc21
pIC50 [1]: 7.89

SMILES: COc1ccc2cc(C(CC(=O)O)NC(=O)Nc3c(O)c(C)cn(Cc4c(C)cccc4Cl)c3=O)ccc2c1 (stereo not shown)
pIC50 (Table 6, 30 minutes at 37° C.): 7.46

SMILES: O=C(O)C[C@H](NC(=O)Nc1ccc(=O)n(Cc2ccccc2)c1)c1ccc2c(c1)OCO2
pIC50 (Table 4, 30 minutes at 37° C.): 6.30

SMILES: CCOc1cc([C@H](CC(=O)O)NC(=O)Nc2c(O)c3c(n(Cc4ccccc4Cl)c2=O)CCC3)cc(Cl)c1OCC
pIC50 [1]: 8.52

SMILES: N#Cc1cccc(CN2CCCCC(NC(=O)N[C@@H](CC(=O)O)c3ccc4c(c3)OCO4)C2=O)c1 (stereo partly shown)
pIC50 (Table 4, 30 minutes at 37° C.): 7.40

SMILES: CCOc1cccc(Cl)c1Cn1nc(C)c(O)c(NC(=O)N[C@@H](CC(=O)O)c2ccc(C)cc2)c1=O
pIC50 [1]: 8.15

SMILES: O=C(O)CC(NC(=O)Nc1c(O)c2c(n(Cc3ccccc3Cl)c1=O)CCC2)c1ccco1 (stereo not shown)
pIC50 [1]: 8.30

SMILES: CCOc1cccc([C@H](CC(=O)O)NC(=O)Nc2c(O)c(CC)cn(Cc3c(Cl)cccc3OCC)c2=O)c1
pIC50 (Table 6, 30 minutes at 37° C.): 8.40

SMILES: O=C(O)C[C@H](NC(=O)Nc1c(O)c2c(n(Cc3ccccc3Cl)c1=O)CCC2)c1cc(C(F)(F)F)cc(C(F)(F)F)c1
pIC50 [1]: 6.89

SMILES: CCOc1cccc(Cl)c1Cn1cc(C)c(O)c(NC(=O)N[C@@H](CC(=O)O)c2ccc(C)cc2)c1=O [(3S)-3-[({[1-(2-chloro-6-ethoxybenzyl)-4-hydroxy-5-methyl-2-oxo-1,2-dihydropyridin-3-yl]amino}carbonyl)amino]-3-(4-methylphenyl)propanoic acid]
pIC50 (Table 6, 30 minutes at 37° C.): 8.52

SMILES: O=C(O)C[C@H](NC(=O)N[C@H]1CCCCN(Cc2cccs2)C1=O)c1ccc2c(c1)OCO2
pIC50 (Table 2, 30 minutes at 37° C.): 7.82

SMILES: Cc1ccc([C@H](CC(=O)O)NC(=O)Nc2c(O)c3c(n(Cc4ccccc4Cl)c2=O)CCCCC3)cc1
pIC50 [2]: 6.92

SMILES: CCOc1cccc(Cl)c1Cn1cc(C)c(O)c(NC(=O)NC(CC(=O)O)c2ccc3ccccc3c2)c1=O (stereo not shown)
pIC50 [1]: 7.89

SMILES: Cc1cn(Cc2c(C)cccc2Cl)c(=O)c(NC(=O)N[C@@H](CC(=O)O)c2ccc3c(c2)CCO3)c1O
pIC50 [1]: 8.30

SMILES: COc1ccc2cc([C@H](CC(=O)O)NC(=O)Nc3c(O)c4c(n(Cc5ccccc5Cl)c3=O)CCC4)ccc2c1
pIC50 [1]: 8.52

SMILES: CCCc1cn(Cc2ccc(Cl)cc2)c(=O)c(NC(=O)N[C@@H](CC(=O)O)c2ccc(OCC)c(OCC)c2)c1O
pIC50 [2]: 7.82

SMILES: CCOc1cc([C@H](CC(=O)O)NC(=O)Nc2c(O)ccn(Cc3ccccc3Cl)c2=O)ccc1OC [(3S)-3-[({[1-(2-chlorobenzyl)-4-hydroxy-2-oxo-1,2-dihydropyridin-3-yl]amino}carbonyl)amino]-3-(3-ethoxy-4-methoxyphenyl)propanoic acid]
pIC50 [2]: 8.70

SMILES: O=C(O)C[C@H](NC(=O)Nc1c(O)c2c(n(Cc3ccccc3Cl)c1=O)CCC2)c1ccc(F)cc1
pIC50 [1]: 8.05
